Assay in all cases: growth of human tumour cells (NCI), 48 h
Assay [1] deals with 786-0.
For assay [2], the system named is A498.
Assay [3] deals with A549.
For assay [4], the system named is EKVX.
Assay [5] has as its system HOP-92.
Assay [6] deals with KM12.
Assay [7] has as its system M19-MEL.
Assay [8] relates to NCI-H522.
The subject of assay [9] is OVCAR-4.
The test system of assay [10] is OVCAR-5.
In assay [11] the test system is RXF 393.
Assay [12] has as its system SF-268.
Assay [13] relates to SK-MEL-2.
In assay [14] the test system is SK-MEL-5.
Assay [15] deals with SK-OV-3.
Assay [16] relates to SW-620.
Assay [17] has as its system UACC-257.

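Where inhibition never reached the appropriate level, the endpoint shown equals the highest concentration tested. Otherwise, values were interpolated linearly from a five-concentration, 48-hour dose response in 96-well plates. GI50: concentration for 50% inhibition of growth.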 Active and inactive are the calls of the source. Rule as the data show it: active = GI50 up to about 1.1 µM and inactive = higher.

As for `COc1nc(NC2OCC(OC(C)=O)C(OC(C)=O)C2OC(C)=O)c(/N=C\C=N\c2c(NC3OCC(OC(C)=O)C(OC(C)=O)C3OC(C)=O)nc(OC)n(C)c2=O)c(=O)n1C` (configuration not stated), the GI50 in [1], in assay [2], in assay [3], in [4], in assay [5] and in [6] was > 100 µM (inactive) each time. The GI50 in [7], in assay [8], in assay [9], in assay [10], in [11] and in [12] was > 100 µM (inactive) each time. The GI50 in assay [13], in assay [14], in assay [15], in assay [16] and in [17] was > 100 µM (inactive) throughout.
As for `O=C1O[C@H](C(Cl)(Cl)Cl)N2CCCC12` (some centres not stated), the GI50 in assay [1], in [2], in assay [3], in [4], in [5] and in [6] was > 100 µM (inactive) in each case. For the same compound, the GI50 in assay [7], in assay [8], in [9], in assay [10], in assay [11] and in [12] was > 100 µM (inactive) in each case. The GI50 in [13], in assay [14], in assay [15], in assay [16] and in assay [17] was > 100 µM (inactive) in each case.
On to `COc1ccc(C=O)cc1O[Si](C)(C)C(C)(C)C`, for which the GI50 is > 100 µM (inactive) in assay [1]; > 100 µM (inactive) in assay [2]; > 100 µM (inactive) in assay [3]; > 100 µM (inactive) in assay [4]; 25.7 µM (inactive) in [5]; > 100 µM (inactive) in [6]. In addition, the GI50 in assay [7], in assay [9], in assay [10], in assay [11], in assay [12] and in [13] was > 100 µM (inactive) in each case. In addition, the GI50 in assay [14], in assay [15], in assay [16] and in assay [17] was > 100 µM (inactive) each time.
Consider `CC(C)=C1CCC(CN(C)C)C1=O` (configuration not stated), for which the GI50 in assay [1] was 12.6 µM (inactive); in [2], 19.6 µM (inactive); in assay [3], > 100 µM (inactive); in assay [4], 17.7 µM (inactive); in assay [5], 20.9 µM (inactive); in [6], 29.7 µM (inactive). The GI50 is 47.2 µM (inactive) in [7]; 0.196 µM (active) in assay [8]; 15 µM (inactive) in [9]; > 100 µM (inactive) in [10]; 18.6 µM (inactive) in assay [11]; 31.5 µM (inactive) in assay [12]. Moreover, the GI50 in assay [13] was 26.3 µM (inactive); in assay [14] it was 15.6 µM (inactive); in assay [16], 6.12 µM (inactive); in assay [17], 17.5 µM (inactive).
On to `Cc1cc(NS(=O)(=O)c2ccc(NC(=O)c3ccc(Cl)c4c(Nc5ccc(S(=O)(=O)Nc6cc(C)on6)cc5)c5ccccc5nc34)cc2)no1`, for which the GI50 is 16 µM (inactive) in assay [1]; 24.1 µM (inactive) in [2]; 25.6 µM (inactive) in assay [3]; 39 µM (inactive) in [4]; 19.8 µM (inactive) in [5]; 19.7 µM (inactive) in assay [6]. The GI50 was 22.9 µM (inactive) in assay [7]; 11.8 µM (inactive) in assay [8]; 34.6 µM (inactive) in assay [9]; 21 µM (inactive) in [10]; > 10 µM (inactive) in assay [11]; 13.8 µM (inactive) in assay [12]. In addition, the GI50 in [13] was 20.9 µM (inactive); in assay [14], 23 µM (inactive); in [15], 19.2 µM (inactive); in assay [16] it was 28.1 µM (inactive); in assay [17], 20.2 µM (inactive).
Take `CC(C)(C)OC(=O)Cc1ccc2c(ccn2Cc2ccccc2)c1`: the GI50 is 73.8 µM (inactive) in [1]; > 100 µM (inactive) in assay [2]; 48.8 µM (inactive) in assay [3]; 81.8 µM (inactive) in assay [4]; 79.3 µM (inactive) in [5]; 64.3 µM (inactive) in [6]. The GI50 in assay [7] is 62.4 µM (inactive); in assay [8], 44.2 µM (inactive); in assay [9], 83.6 µM (inactive); in assay [10], 42.5 µM (inactive); in assay [11], 37.1 µM (inactive); in assay [12], 66.4 µM (inactive). Also, the GI50 was > 100 µM (inactive) in assay [13]; 31.4 µM (inactive) in assay [14]; > 100 µM (inactive) in [15]; 67.1 µM (inactive) in assay [16]; 39.9 µM (inactive) in assay [17].
Take `CN(/N=C/c1ccnc2ccccc12)c1ccc([N+](=O)[O-])cc1[N+](=O)[O-]`: the GI50 in [1] was 30.6 µM (inactive); in [2], > 100 µM (inactive); in [3], > 100 µM (inactive); in assay [4], > 100 µM (inactive); in assay [5] it was 46.9 µM (inactive); in assay [6] it was > 100 µM (inactive). The GI50 in assay [7] is > 100 µM (inactive); in assay [8] it was > 100 µM (inactive); in [9] it was > 100 µM (inactive); in assay [10], > 100 µM (inactive); in [11], 41.8 µM (inactive); in assay [12] it was > 100 µM (inactive). For the same compound, the GI50 in assay [13] is 28.6 µM (inactive); in [14], > 100 µM (inactive); in assay [15] it was 47.5 µM (inactive); in assay [16], > 100 µM (inactive); in assay [17], > 100 µM (inactive).
On to `C/C(=N/O)c1sc(-c2nc(C)c(/C(C)=N\O)s2)nc1C`, for which the GI50 in assay [1], in assay [2], in assay [3], in assay [4], in assay [5] and in [7] was > 100 µM (inactive) throughout. For the same compound, the GI50 in [9], in assay [11], in assay [12], in [14], in [15] and in assay [16] was > 100 µM (inactive) throughout. Moreover, the GI50 in assay [17] is > 100 µM (inactive).
`CN(C(=O)C1CC1)C1C2CN3CCC(O2)C13` (configuration not stated): the GI50 in assay [1], in [2], in assay [3], in assay [4], in [5] and in assay [6] was > 100 µM (inactive) each time. Also, the GI50 in assay [7], in assay [8], in assay [9], in assay [10], in assay [11] and in [12] was > 100 µM (inactive) in each case. For the same compound, the GI50 in [13], in [14], in [15], in assay [16] and in assay [17] was > 100 µM (inactive) each time.
In the case of `O=S(=O)(O)c1ccc(-c2c3nc(c(-c4ccc(S(=O)(=O)O)cc4)c4ccc([nH]4)c(-c4ccc(S(=O)(=O)O)cc4)c4nc(c(-c5ccc(S(=O)(=O)O)cc5)c5ccc2[nH]5)C=C4)C=C3)cc1`, the GI50 in assay [1] is > 100 µM (inactive); in assay [2] it was 31 µM (inactive); in assay [3], 55 µM (inactive); in assay [4], > 100 µM (inactive); in assay [5] it was 21.8 µM (inactive); in [6] it was > 100 µM (inactive). Further, the GI50 in assay [7] is > 100 µM (inactive); in [8], 26.5 µM (inactive); in assay [9], 45.6 µM (inactive); in assay [10], > 100 µM (inactive); in assay [11], 19.9 µM (inactive); in assay [12] it was 92.5 µM (inactive). Further, the GI50 in [13] was 27.1 µM (inactive); in [14], > 100 µM (inactive); in [15], > 100 µM (inactive); in [16] it was > 100 µM (inactive); in [17] it was > 100 µM (inactive).
With `Cn1c2c(c3ccccc31)CCN(CCCCN1CCN(c3cccc(Cl)c3)CC1)C2=O`, the GI50 in [1] is 13 µM (inactive); in [2], 13.8 µM (inactive); in [3], 20.5 µM (inactive); in assay [4], 21.5 µM (inactive); in assay [5], 15.2 µM (inactive); in assay [7], 11.5 µM (inactive). In addition, the GI50 in assay [8] was 12.3 µM (inactive); in assay [9], 14.9 µM (inactive); in [10], 4.56 µM (inactive); in assay [11], 7.94 µM (inactive); in assay [12] it was 16.9 µM (inactive); in assay [13], 16.7 µM (inactive). The GI50 in assay [14] was 10.1 µM (inactive); in assay [15], 16.3 µM (inactive); in assay [16] it was 12.6 µM (inactive); in assay [17] it was 7.03 µM (inactive).
On to `C1CC2=C(C1)C1=S(S2)SC2=C1CCC2`, for which the GI50 is > 100 µM (inactive) in assay [1]; 10.7 µM (inactive) in assay [2]; > 100 µM (inactive) in [3]; > 100 µM (inactive) in assay [4]; > 100 µM (inactive) in assay [5]; > 100 µM (inactive) in [6]. Further, the GI50 in [7], in assay [8], in assay [9], in assay [10], in assay [11] and in assay [12] was > 100 µM (inactive) each time. Besides, the GI50 in [13], in [14], in assay [15], in assay [16] and in [17] was > 100 µM (inactive) in each case.

(Values after ChEMBL document CHEMBL1201862, “PubChem BioAssay data set” (2004).)
